For test [1], the target named is T1, Na^+/K^+ ATPase-alpha1 isoform purified from dog kidneys (Canis lupus familiaris, UniProt P50997).
T1 construct: excised from 1–3-year-old male beagle dogs; from tissue; host or cells: dog (beagle) kidney outer medulla, Jørgensen purification
Put plainly: Na+/K+ ATPase activity inhibition, purified dog kidney enzyme (32P-ATP hydrolysis). It is filed as biochemical. Here is the method:
Compounds were tested in a concentration range from 10^–9 to 10^–4 M on a purified renal Na^+/K^+ ATPase preparation with a specific activity of 14 μmol/min/mg protein.
Figure 2 Na^+/K^+ ATPase activity inhibition in a dog purified enzyme preparation. All compounds were tested in a concentration range from 10^–9 to 10^–4 M in comparison to ouabain.
The inhibitory effect of compounds was tested at multiple concentrations on Na^+/K^+ ATPase-alpha1 isoform purified from dog kidneys. […]
Renal Na+/K+ ATPase purification and activity
Purification of renal Na+/K+ ATPase was performed according to the method of Jørgensen2. Kidneys were excised from 1–3-year-old male beagle dogs, obtained from the General Pharmacology Department of Sigma-tau, Pomezia, Italy, under pentobarbital anesthesia. Kidneys were sliced and the outer medulla was dissected, pooled and suspended (1g in 10 ml) in a sucrose-histidine solution, containing 250 mM sucrose, 30 mM histidine and 5 mM EDTA, pH 7.2 and homogenized. The homogenate was centrifuged at 6,000 g for 15 min, the supernatant was decanted and centrifuged at 48,000 g for 30 min. The pellet was suspended in the sucrose-histidine buffer and incubated for 20 min with a sodium-dodecyl-sulphate (SDS) solution, dissolved in a gradient buffer, containing 25 mM imidazole and 1 mM EDTA, pH 7.5. The sample was layered on the top of a sucrose discontinuous gradient (10, 15 and 29.4%) and centrifuged at 60,000 g for 115 min. The final pellet was suspended in the gradient buffer.
Na+/K+ ATPase activity was assayed by measuring 32P-ATP hydrolysis, as previously described3.
Increasing concentrations of the standard ouabain, or tested compound, were incubated with 0.3 μg of purified dog kidney enzyme for 10 min at 37°C in 120 μl final volume of a medium, containing 140 mM NaCl, 3 mM MgCl2, 50 mM Hepes-Tris, 3 mM ATP, pH 7.5. Then, 10 μl of incubation solution containing 10 mM KCl and 20 nCi of 32P-ATP (3-10 Ci/mmol, Perkin Elmer) were added, the reaction continued for 15 min at 37°C and was stopped by acidification with 20% ice-cold perchloric acid.
32P was separated by centrifugation with activated Charcoal (Norit A, Serva) and the radioactivity was measured. Effects of increasing concentrations of the tested compound were compared to ouabain, as positive standard, and to vehicle (control) at 37°C. The inhibitory activity was expressed as percent of activity in control. The concentration of compound causing 50% inhibition of the Na+/K+ ATPase activity (IC50) was calculated by non-linear fitting of data points (KaleidagraphTM, Sinergy Software). […]

In test [2] the test system is SERCA1 reconstituted with PLN1–32 fragment. Put plainly: SERCA1 ATPase activity after reconstitution with PLN1-32 fragment. It is filed as biochemical, guinea pig. Particulars: 30 to 1000 nM. Here is the method:
(§1) Data are the mean ± SEM. *p < 0.05 (one-way RM ANOVA plus post hoc Tukey’s multiple comparisons or paired t-test).
(§2) Measurements were performed in cardiac SR microsomes (guinea pig) and in whole tissue homogenates (rat). Cardiac preparations included SERCA2a and PLN. To test for PLN involvement in the effect of compounds, SERCA1 activity was measured in PLN-free microsomes (from guinea pig skeletal muscle) before and after reconstitution with the synthetic PLN1–32 inhibitory fragment at a ratio of 300:1 for PLN/SERCA. […] Either an increase in Vmax (rat) or a decrease in KdCa (increased Ca^2+ affinity) (guinea pig) stands for enhancement of SERCA function.
(§3) (rats). As verified by Western blot, cardiac microsomes preparations included SERCA2a and PLN and skeletal muscle ones included SERCA1 only.
(§4) SERCA stimulation4, compounds were also tested on SERCA1 in microsomes of guinea-pig skeletal muscle (PLN-free) before and after reconstitution with the PLN1-32 inhibitory fragment at a ratio of 300:1 […]
Tissues were homogenized, subjected to centrifugation to obtain SR -enriched microsomes and sarcomeric proteins were extracted, as previously described 4.
In the case of guinea-pig hearts, LV tissues were homogenized in 4 volumes of 10 mM NaHCO3, 1 mM PMSF, 10 μg/ml aprotinin and leupeptin (pH 7) and centrifuged at 12,000g for 15 minutes. Supernatants were filtered and centrifuged at 100,000 g for 30 min. Contractile proteins were extracted by suspending the pellets with 0.6 M KCl, 30 mM histidine, pH 7 and further centrifugation at 100,000 g for 30 min.
Final pellets were reconstituted with 0.3 M sucrose, 30 mM histidine, pH 7, to obtain SR-enriched […]
SERCA2a ATPase activity was measured as the rate of 32P-ATP release at multiple Ca2+ concentrations (100-2000 nM) in the absence and presence of tested compounds, as previously described5. Increasing concentrations of each compound were pre-incubated with 2 μg of cardiac preparations for 5 min at 4° C in 80 μl of a solution containing 100 mM KCl, 5 mM MgCl2, 1 μM A23187, 20 mM Tris, pH 7.5. Then, 20 μl of 5 mM Tris-ATP containing 50 nCi of 32P-ATP (3-10 Ci/mmol, Perkin Elmer) were added. The ATP hydrolysis was continued for 15 min at 37°C and the reaction was stopped by acidification with 100 μl of 20% ice-cold perchloric acid. 32P was separated by centrifugation with activated charcoal (Norit A, Serva) and the radioactivity was measured. SERCA2a-dependent ATPase activity was identified as the portion of total hydrolytic activity inhibited by cyclopiazonic acid (CPA, 10 µM). Technical replicates were used to ensure the reliability of single values.
Reconstitution of SERCA1 with PLN1-32 synthetic fragment
Adult healthy male guinea-pigs were used to prepare SERCA1-enriched SR microsomes from fast-twitch hind leg muscles. Microsomes were prepared as described for SERCA2a preparations. For reconstitution experiments, SERCA1 (PLN-free) was pre-incubated with synthetic PLN1-32 fragment (canine sequence, Biomatik Corporation, Canada) in 20 mM imidazole, pH 7, at 1:300 SERCA1:PLN ratio for 30 min at room temperature. After pre-incubation, SERCA1 (PLN-free) alone, or reconstituted with PLN1-32 […]
fragment, was utilized for SERCA activity measurement by using 32P-ATP hydrolysis method at different

Test [3] concerns the target T2, SERCA1 (Cavia porcellus, UniProt H0UXI0).
T2 construct: from tissue; host or cells: adult male guinea pig fast-twitch hind leg muscle, SR microsomes
Put plainly: SERCA1 ATPase activity in PLN-free skeletal muscle microsomes. The test is classed as biochemical, guinea pig. Particulars: 30 to 1000 nM. The protocol:
as §1, §2, §3, §4
SERCA2a ATPase activity was measured as the rate of 32P-ATP release at multiple Ca2+ concentrations (100-2000 nM) in the absence and presence of tested compounds, as previously described5. […] 32P was separated by centrifugation with activated charcoal (Norit A, Serva) and the radioactivity was measured. […]

The structures appear in SMILES notation.

T2 sequence (H0UXI0 1-1001): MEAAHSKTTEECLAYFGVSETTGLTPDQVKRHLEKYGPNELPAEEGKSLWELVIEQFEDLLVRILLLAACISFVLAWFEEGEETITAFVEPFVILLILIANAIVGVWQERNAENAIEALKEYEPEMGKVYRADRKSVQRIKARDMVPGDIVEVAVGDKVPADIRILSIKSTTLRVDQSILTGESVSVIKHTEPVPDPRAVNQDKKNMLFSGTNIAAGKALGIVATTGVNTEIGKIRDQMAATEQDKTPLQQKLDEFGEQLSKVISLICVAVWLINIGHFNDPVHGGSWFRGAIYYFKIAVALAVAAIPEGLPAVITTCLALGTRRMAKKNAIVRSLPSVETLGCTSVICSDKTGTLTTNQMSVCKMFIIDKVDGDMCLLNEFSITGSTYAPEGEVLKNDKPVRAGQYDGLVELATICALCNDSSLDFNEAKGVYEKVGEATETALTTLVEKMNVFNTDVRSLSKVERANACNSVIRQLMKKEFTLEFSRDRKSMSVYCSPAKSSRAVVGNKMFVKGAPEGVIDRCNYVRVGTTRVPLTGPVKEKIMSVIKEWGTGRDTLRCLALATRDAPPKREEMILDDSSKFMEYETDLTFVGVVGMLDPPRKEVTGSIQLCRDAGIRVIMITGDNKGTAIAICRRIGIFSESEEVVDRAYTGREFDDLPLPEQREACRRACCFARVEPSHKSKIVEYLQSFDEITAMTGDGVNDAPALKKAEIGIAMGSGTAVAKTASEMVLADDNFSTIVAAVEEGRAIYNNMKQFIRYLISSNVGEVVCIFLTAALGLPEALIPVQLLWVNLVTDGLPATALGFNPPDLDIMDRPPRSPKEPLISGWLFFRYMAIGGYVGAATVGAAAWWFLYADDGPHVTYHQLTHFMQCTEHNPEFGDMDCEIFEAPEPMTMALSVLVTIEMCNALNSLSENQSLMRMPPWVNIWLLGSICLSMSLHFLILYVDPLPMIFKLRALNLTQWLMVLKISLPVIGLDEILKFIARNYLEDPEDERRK

By IC50 is commonly meant the concentration that gives 50% inhibition. Read a high IC50 as lower potency. Consider `C[C@]12CC[C@H](CCCC(=O)O)C[C@@H]1[C@@H](O)C[C@@H]1[C@@H]2CC[C@]2(C)C(=O)CC[C@@H]12` [Compound 5], for which the IC50 in test [1] is > 100 µM. Further, in test [2], the “SERCA1 KdCa after reconstitution with PLN1–32” value is given as “dose-dependently reversed the PLN-induced shift in KdCa” and the “SERCA1 Vmax after reconstitution with PLN1–32” value is listed as “unchanged”. In test [3], the “skeletal SERCA1 activity in the absence of PLN” value was “failed to affect”.

`C[C@]12CC[C@H](CC(=O)O)C[C@@H]1[C@@H](O)C[C@@H]1[C@@H]2CC[C@]2(C)C(=O)CC[C@@H]12` [Compound 8]: the IC50 in test [1] was > 100 µM. Also, in test [2], the “SERCA1 KdCa after reconstitution with PLN1–32” value is on record as “dose-dependently reversed the PLN-induced shift in KdCa” and the “SERCA1 Vmax after reconstitution with PLN1–32” value is recorded as “unchanged”. The “skeletal SERCA1 activity in the absence of PLN” value in test [3] was “failed to affect”.

The record behind these values is paper PMC9150102 (Journal of Medicinal Chemistry, 2022).
